Read-outs that look alike come from different tables or passages of the source.
Experiments:
[1] = Pharmacokinetic (PK) test in mice; type: in vivo; conditions: male ICR mice, plasma; for AUC(0-inf): read-out: AUCINF_obs; for Cmax: read-out: C0/Cmax
Description: To male ICR mice, the solution of Compound C2 (1 mg/mL) of the present invention and the solution of control Compound A (1 mg/mL) were administered intravenously (IV) and intragastrically (PO), in both of which the vehicle system is DMSO, solutol and deionized water (1:2:17, v:v:v). For Compound C2 and Compound A, the IV and PO dosages were 3 mg/kg and 20 mg/kg, respectively. For IV administration, blood was collected from the ophthalmic venous plexus of the mice at (0) horn before the administration and at 0.083, 0.25, 0.5, 1, 2, 4, 6, 8, and 24 horns after the administration, while for PO administration, blood was collected from ophthalmic venous plexus of the mice at (0) hour before the administration and at 0.25, 0.5, 1, 2, 4, 6, 8, and 24 horns after the administration. For Compound C2, a 0.05 mL blood sample was taken at each time point, while for Compound A, a 0.03 mL blood sample was taken at each time point. The collected blood sample was placed in a clean sample tube containing EDTA-K2 (4%), and centrifuged at 5000 rpm at 4° C. for 5 minutes. The resulting plasma was transferred to another clean sample tube, and stored at −20° C. LC-MS/MS analysis was performed on the plasma samples. The pharmacokinetic parameters were calculated using WinNonlin 6.3 software.

AT2 Receptor (AT2R) = AT2 Receptor (AT2R) (Homo sapiens (Human), UniProt P50052); assay: Inhibitory activity on AT2 receptor (Tag-lite HTRF, Tb-labeled AT2R cells, angiotensin receptor red agonist); type: binding; conditions: 1 h at room temperature
AT1 Receptor (AT1R) = AT1 Receptor (AT1R) (Homo sapiens (Human), UniProt P30556); assay: Inhibitory activity on AT1 receptor (Tag-lite HTRF, Tb-labeled AT1R cells, angiotensin receptor red agonist); type: binding; conditions: 1 h at room temperature
Sequence of AT1 Receptor (AT1R) (P30556 whole entry): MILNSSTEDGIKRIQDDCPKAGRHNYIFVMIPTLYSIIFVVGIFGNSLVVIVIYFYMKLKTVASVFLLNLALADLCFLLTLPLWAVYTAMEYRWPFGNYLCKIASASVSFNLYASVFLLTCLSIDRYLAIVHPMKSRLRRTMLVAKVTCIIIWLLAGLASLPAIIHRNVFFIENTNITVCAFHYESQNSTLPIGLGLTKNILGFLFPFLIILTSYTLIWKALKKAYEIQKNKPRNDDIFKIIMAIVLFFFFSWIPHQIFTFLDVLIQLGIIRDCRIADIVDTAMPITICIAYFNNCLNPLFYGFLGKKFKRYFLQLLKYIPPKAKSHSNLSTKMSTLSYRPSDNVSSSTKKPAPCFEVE

Sequence of AT2 Receptor (AT2R) (P50052 whole entry): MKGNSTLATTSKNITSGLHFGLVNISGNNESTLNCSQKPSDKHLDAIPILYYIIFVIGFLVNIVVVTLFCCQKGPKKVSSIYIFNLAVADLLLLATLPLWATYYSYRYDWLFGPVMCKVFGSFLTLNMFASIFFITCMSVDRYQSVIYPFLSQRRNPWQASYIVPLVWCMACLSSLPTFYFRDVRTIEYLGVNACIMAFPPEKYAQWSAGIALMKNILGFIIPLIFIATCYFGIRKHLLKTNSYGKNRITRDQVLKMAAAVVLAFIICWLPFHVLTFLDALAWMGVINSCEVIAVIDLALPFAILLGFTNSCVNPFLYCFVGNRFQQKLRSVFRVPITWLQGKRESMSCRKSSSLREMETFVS

Compound | IC50 (AT2 Receptor (AT2R)) | IC50 (AT1 Receptor (AT1R)) | also measured
O=C(O)[C@@H]1CN(C(=O)N(c2ccccc2)c2ccccc2)CCN1C(=O)N(c1ccccc1)c1ccccc1 [A, reference compound] | – | – | CL_obs ([1]; IV, 3 mg/kg): 41.8933 mL/min/kg; bioavailability ([1]; mouse, PO 20 mg/kg vs IV 3 mg/kg): 6.26%; AUC(0-t) ([1]; mouse, IV, 3 mg/kg): 1190 ng·h/mL; MRT last ([1]; mouse, IV, 3 mg/kg): 17.4 min; half-life ([1]; mouse, IV, 3 mg/kg): 30 min; AUC(0-inf) ([1]; mouse, IV, 3 mg/kg): 1200 ng·h/mL; Cmax ([1]; mouse, IV, 3 mg/kg): 7170 ng/mL; AUC(0-t) ([1]; mouse, PO, 20 mg/kg): 495 ng·h/mL; MRT last ([1]; mouse, PO, 20 mg/kg): 63.6 min; half-life ([1]; mouse, PO, 20 mg/kg): 52.3 min; AUC(0-inf) ([1]; mouse, PO, 20 mg/kg): 499 ng·h/mL; Cmax ([1]; mouse, PO, 20 mg/kg): 366 ng/mL
O=C(O)[C@@H]1CN(C(=O)N2c3ccccc3C=Cc3ccccc32)CCN1C(=O)N(c1ccccc1)c1ccccc1 [Compound C1, (S)-4-(5H-dibenzo[b,f]azepine-5-carbonyl)-1-(diphenylcarbamoyl) piperazine-2-carboxylic acid] | 18.8 nM | > 10 µM | –
O=C(O)[C@@H]1CN(C(=O)N2c3ccccc3C=Cc3ccccc32)CCN1C(=O)N1c2ccccc2C=Cc2ccccc21 [Compound C3, (S)-1,4-bis(5H-dibenzo[b,f]azepine-5-carbonyl) piperazine-2-carboxylic acid] | 32.5 nM | > 10 µM | –
O=C(O)[C@@H]1CN(C(=O)C(c2ccccc2)c2ccccc2)CCN1C(=O)N1c2ccccc2C=Cc2ccccc21 [Compound C4, (S)-1-(5H-dibenzo [b,f]azepine-5-carbonyl)-4-(2,2-diphenylacetyl) piperazine-2-carboxylic acid] | 45.1 nM | > 10 µM | –
O=C(O)[C@@H]1CN(C(=O)N2c3ccccc3C=Cc3ccccc32)CCN1C(=O)C(c1ccccc1)c1ccccc1 [Compound C5, (S)-4-(5H-dibenzo [b,f]azepine-5-carbonyl)-1-(2,2-diphenylacetyl) piperazine-2-carboxylic acid] | 6.47 nM | > 10 µM | –
COC1=Cc2ccccc2N(C(=O)N2CCN(C(=O)N(c3ccccc3)c3ccccc3)C[C@H]2C(=O)O)c2ccccc21 [Compound C50, (S)-4-(diphenylcarbamoyl)-1-(10-methoxy-5H-dibenzo[b,f]azepine-5-carbonyl) piperazine-2-carboxylic acid] | – | > 10 µM | –
O=C(O)[C@@H]1CN(C(=O)C(c2ccccc2)c2ccccc2)CCN1C(=O)C1(c2ccccc2)CCCCC1 [Compound C81, (S)-4-(2,2-diphenylacetyl)-1-(1-phenylcyclohexanecarbonyl) piperazine-2-carboxylic acid] | – | > 10 µM | –
COc1ccccc1N(C(=O)N1CCN(C(=O)N2c3ccccc3CC(=O)c3ccccc32)[C@H](C(=O)O)C1)c1ccccc1OC [Compound C94, (S)-4-(bis(2-methoxylphenyl)carbamoyl)-1-(10-oxo-10,11-dihydro-5H-dibenzo [b,f]azepine-5-carbonyl)piperazine-2-carboxylic acid] | – | > 10 µM | –
Cc1cc(CN(C(=O)N2CCN(C(=O)N(c3ccccc3)c3ccccc3)[C@H](C(=O)O)C2)C2CC2)cs1 [Compound C146, (S)-4-(cyclopropyl((5-methylthiophen-3-yl)methyl)carbamoyl)-1-(diphenylcarbamoyl) piperazine-2-carboxylic acid] | 14.2 nM | – | –
CS(=O)(=O)NC(=O)[C@@H]1CN(C(=O)N2c3ccccc3CC(=O)c3ccccc32)CCN1C(=O)N(c1ccccc1)c1ccccc1 [Compound C149] | 290 nM | – | –
CCN(Cc1csc(Cl)c1)C(=O)N1CCN(C(=O)N(c2ccccc2)c2ccccc2)[C@H](C(=O)O)C1 [Compound C150, (S)-4-(((5-chlorothiophene-3-yl)methyl)(ethyl)carbamoyl)-1-(diphenylcarbamoyl) piperazine-2-carboxylic acid] | 26.1 nM | – | –
Cc1ccc(CN(C(=O)N2CCN(C(=O)C(c3ccccc3)c3ccccc3)[C@H](C(=O)O)C2)C2CC2)s1 [Compound C153, (S)-4-(cyclopropyl((5-methylthiophen-2-yl)methyl)carbamoyl)-1-(2,2-diphenylacetyl)piperazine-2-carboxylic acid] | 5.47 nM | – | –

Source: patent US11905274B2, “Receptor inhibitors, pharmaceutical compositions comprising the same and use thereof” (BEIJING TIDE PHARMACEUTICAL CO., LTD., priority 2018, dated 2024)
